The source of these data is patent US20200102349A1, “PEPTIDE REAGENTS AND METHODS FOR DETECTION AND TARGETING OF DYSPLASIA, EARLY CANCER AND CANCER” (THE REGENTS OF THE UNIVERSITY OF MICHIGAN, priority 2014, published 2020).

In data set [1] the test system is vascular endothelial growth factor A (VEGFA). To be noted: n=14 BE patients, topical and systemic; cited from earlier work.
Data set [2] in a line: Pharmacology/toxicology study in rats, single dose oral gavage. For Blood tests (days 2 and 15): key: NAD: No abnormalities detected. For Clinical signs: key: NAD: No abnormalities detected. For Necropsy (days 2 and 15): key: NAD: No abnormalities detected. For Observe (morbidity, mortality, injury, body weights, food and water consumption): key: NAD: No abnormalities detected. For Urinalysis: key: NAD: No abnormalities detected. Type of data set: in vivo. To be noted: for Blood tests (days 2 and 15) / Clinical signs / Necropsy (days 2 and 15) / Observe (morbidity, mortality, injury, body weights, food and water consumption) / Urinalysis: oral gavage. As to the method: A rigorous pharmacology/toxicology study was performed in animals (MPI Research) for each peptide to provide pre-clinical evidence for safety. A total of 24 male and 24 female rats (CD®[Crl:CD® (SD)] (Charles River) were used in each study. At 8 weeks of age, the animals were randomly assigned to 4 groups, including 3 treatment and 1 control. Dose levels of 0.0086, 0.026, and 0.86 mg/kg were used for QRH*-Cy5, and 0.186, 0.32, and 1.08 mg/kg were used for KSP*-IRDye800. The control group received 10 mL/kg of PBS as vehicle. The vehicle and test articles were administered by single dose oral gavage. Clinical signs, including morbidity, mortality, and injury, were monitored twice daily. Laboratory tests and necropsy were evaluated in 3 animals/sex/dose on days 2 and 15.

Data set [3] can be described thus: Phase 1 first-in-human safety study, oral administration. It counts as in vivo. To be noted: n=25 human subjects, 0.5 mg or 1.2 mg. As to the method: A first-in-human study was performed to establish clinical evidence of safety for each peptide. An Investigational New Drug (IND) application (sponsor DKT) was prepared, and submitted for review to the US Food and Drug Administration (FDA). […] The study protocols were reviewed and approved by the Institutional Review Board (IRB) at the University of Michigan. These studies, including NCT02574858 (QRH*-Cy5) and NCT03161418 (KSP*-IRDye800), were registered online at ClinicalTrials.gov. A total of n=25 subjects was recruited for each study. All enrolled patients provided written informed consent. A dose escalation study was performed. The first n=3 subjects were administered 0.5 mg of peptide reconstituted in 5 mL of normal saline (0.9%) per oral. […] An electrocardiogram (EKG) was performed and vital signs were monitored. […] No images were collected during the safety study.

A short description of data set [4]: Stability of lyophilized cGMP peptides on storage. Type of data set: physicochemical. As to conditions: KSP*-IRDye800 lyophilized, −20° C.; for Molecular: molecular weight by Q-TOF. The text has this: QRHKPRE (SEQ ID NO: 1) was labeled with Cy5 via a GGGSK (SEQ ID NO: 18) linker to prevent steric hindrance. This sequence was selected using phage display methods for specific binding to EGFR.^22 KSPNPRF (SEQ ID NO: 26) was labeled with IRDye800 via a GGGSC (SEQ ID NO: 27) linker, hereafter KSP*-IRDye800. This sequence was identified using a structural model for specific binding to ErbB2.^23 The fluorophores used were chosen to minimize spectral overlap between absorbance and emission. QRH*-Cy5 and KSP*-IRDye800 were synthesized using current good manufacturing practices (cGMP) methods. Peptide stability was monitored by visual appearance, purity (HPLC), and molecular weight over the duration of the study.

The target in the next data set is T1, ErbB2 (Homo sapiens, UniProt P04626).
T1 construct: topically administered into the distal esophagus using a standard spray catheter; from tissue; host or cells: distal esophagus mucosa of Barrett's patients, in vivo
The data set can be described thus: Multiplexed in vivo imaging of distal esophagus in patients, KSP*-IRDye800 channel. As to the method: A multi-modal scanning fiber endoscope (mmSFE) was designed to collect fluorescence and reflectance concurrently. A custom fiber-coupled multi-laser system (SpectraTEC, Blue Sky Research) provides illumination at λex=638 and 785 nm concurrently through a single mode fiber (SMF) to excite QRH*-Cy5 and KSP*-IRDye800, respectively. A 0.4 mm diameter metal coated piezo tube actuator (Nagamine) generates a spiral scan pattern at an average maximum deflection angle of about 70°. Large core (500 μm diameter) multi-mode fibers (MMF) with high numerical aperture (NA=0.6, Mitsubishi Rayon) are arranged around the instrument periphery to maximize light collection.^38 The diameter and rigid length of the distal tip were designed to pass forward easily through the working channel of a standard upper endoscope.
The optics used to separate and collect fluorescence from each peptide was contained within the base station (VerAvanti). A notch filter (NF, # NF03-785E-25, Semrock) was used to attenuate the excitation beam at λ=785 nm. Reflectance at λ=[…] was deflected by a dichroic beam splitter (BS1, # FF652-Di02, Semrock) to a multi-pixel photon counter (MPPC1, SiPM, Hamamatsu) for detection. Fluorescence from QRH*-Cy5 was deflected by a second beam splitter (BS2, # Di02-R785, Semrock) centered at λ=785 nm through a bandpass filter (BPF, FF01-697/58, Semrock) that transmits between 668-726 nm for detection by MPPC2. Fluorescence from KSP*-IRDye800 passes through BS2 and long pass filter (LPF, # BLP01-785R, Semrock) with cutoff at λ=805 nm and is detected by MPPC3. Kinematic filter cubes (DFM1/M, ThorLabs) were used to mount and align the optics.
Consecutive patients referred to Michigan Medicine for either evaluation or therapy of Barrett's neoplasia (LGD/HGD/EAC) were recruited. Inclusion criteria included: 1) history of Barrett's neoplasia, 2) medically able to tolerate upper endoscopy, and 3) age over 18. Exclusion criteria included: 1) history of esophagectomy and 2) on active chemotherapy or radiation protocol. The multiplexed imaging study was approved by the University of Michigan IRB, and was registered online at ClinicalTrials.gov (NCT03589443). […] Separate channels were used to record fluorescence images from QRH*-Cy5 and KSP*-IRDye800 and from reflectance at λ=638 nm. The conventional white light illumination was shut off during collection of fluorescence images to prevent interference. […]
Video streams with greater than 30 consecutive images (1 second) that had negligible artifacts, including debris, bubbles, pooling, and conventional white light, were extracted from the original recordings. Single frames from the target regions with high contrast and minimum motion blur and distortion were selected for intensity quantification. The frames were separated into two fluorescence channels and a co-registered reflectance image. Target/background (T/B) ratios were calculated for each fluorescence image as follows. […] Fluorescence regions with high intensity were segmented using the Chan-Vese algorithm,^39 where an active contour model was evolved iteratively to minimize the energy function, Eq. 1, defined by the weighted sum of the 1) boundary length, 2) area, and variance of intensity 3) inside and 4) outside of the segmented region. […]

The subject of data set [5] is Barrett's neoplasia (HGD/EAC). The data set can be described thus: Multiplexed in vivo imaging of distal esophagus in patients, both channels combined. Details: species or system human. To be noted: topical, 5 minutes incubation. As to the method:
A multi-modal scanning fiber endoscope (mmSFE) was designed to collect fluorescence and reflectance concurrently. A custom fiber-coupled multi-laser system (SpectraTEC, Blue Sky Research) provides illumination at λex=638 and 785 nm concurrently through a single mode fiber (SMF) to excite QRH*-Cy5 and KSP*-IRDye800, respectively. A 0.4 mm diameter metal coated piezo tube actuator (Nagamine) generates a spiral scan pattern at an average maximum deflection angle of about 70°. […]
The optics used to separate and collect fluorescence from each peptide was contained within the base station (VerAvanti). […] Fluorescence from QRH*-Cy5 was deflected by a second beam splitter (BS2, # Di02-R785, Semrock) centered at λ=785 nm through a bandpass filter (BPF, FF01-697/58, Semrock) that transmits between 668-726 nm for detection by MPPC2. Fluorescence from KSP*-IRDye800 passes through BS2 and long pass filter (LPF, # BLP01-785R, Semrock) with cutoff at λ=805 nm and is detected by MPPC3. […]
Consecutive patients referred to Michigan Medicine for either evaluation or therapy of Barrett's neoplasia (LGD/HGD/EAC) were recruited. […] Separate channels were used to record fluorescence images from QRH*-Cy5 and KSP*-IRDye800 and from reflectance at λ=638 nm. The conventional white light illumination was shut off during collection of fluorescence images to prevent interference. […]

vascular endothelial growth factor A (VEGFA), sequence (P15692 207-311 limits assumed): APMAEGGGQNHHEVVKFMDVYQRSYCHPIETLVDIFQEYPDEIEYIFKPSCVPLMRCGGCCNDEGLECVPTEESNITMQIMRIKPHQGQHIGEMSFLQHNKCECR

Consider “Bevacizumab: antibody specific for VEGFA, repurposed for diagnostic imaging by labeling with IRDye800”, for which the “increase in detection of early lesions using fluorescence compared with HD-WLE and NBI” value in data set [1] was “about 33%”.

With “Lys^1-Ser^2-Pro^3-Asn^4-Pro^5-Arg^6-Phe^7-Gly^8-Gly^9-Gly^10-Ser^11-Cys^12(IRDye800) [KSP*-IRDye800]”, the “Blood tests (days 2 and 15)” value in data set [2] (KSP*-IRDye800 0.186 mg/kg), in data set [2] (KSP*-IRDye800 0.32 mg/kg) and in data set [2] (KSP*-IRDye800 1.08 mg/kg) was “NAD” throughout. In addition, the Clinical signs entry in data set [2] (KSP*-IRDye800 0.186 mg/kg), in data set [2] (KSP*-IRDye800 0.32 mg/kg) and in data set [2] (KSP*-IRDye800 1.08 mg/kg) was “NAD” throughout. The “Necropsy (days 2 and 15)” value in data set [2] (KSP*-IRDye800 0.186 mg/kg), in data set [2] (KSP*-IRDye800 0.32 mg/kg) and in data set [2] (KSP*-IRDye800 1.08 mg/kg) was “NAD” throughout. Further, the “Observe (morbidity, mortality, injury, body weights, food and water consumption)” value in data set [2] (KSP*-IRDye800 0.186 mg/kg), in data set [2] (KSP*-IRDye800 0.32 mg/kg) and in data set [2] (KSP*-IRDye800 1.08 mg/kg) was “NAD” each time. In addition, the Urinalysis result in data set [2] (KSP*-IRDye800 0.186 mg/kg), in data set [2] (KSP*-IRDye800 0.32 mg/kg) and in data set [2] (KSP*-IRDye800 1.08 mg/kg) was “NAD” throughout. Also, the “acute adverse effects in animal pharmacology/toxicology study (GLP)” value in data set [2] (single dose oral gavage) is “No acute adverse effects”. In addition, the “abnormalities in laboratory results, urinalysis, and EKG” value in data set [3] is “No abnormalities”. The “adverse events (AE)” value in data set [3] was “no adverse events”. Further, the Molecular in data set [4] (time 0) is given as 2397.6; in data set [4] (time 12) it was 2397.5; in data set [4] (time 24), 2397.6; in data set [4] (time 36), 2397.6. Also, the “Purity (HPLC)” value in data set [4] (time 0) is 98.8%; in data set [4] (time 6) it was 98.8%; in data set [4] (time 12), 98.7%; in data set [4] (time 18), 98.9%; in data set [4] (time 24), 98.9%; in data set [4] (time 30), 98.7%. In data set [4] (time 36), the “Purity (HPLC)” value turned out to be 98.9%. Besides, the “mean (±SD) T/B ratio” value on ErbB2 (HGD (n=7) and EAC (n=6)) came to 1.68±0.24; at ErbB2 (SQ (n=3) and NDBE (n=6), topical, distal esophagus), 1.28±0.14. For the same substance, on ErbB2 (LGD (n=1)), the T/B ratio was determined as 1.14. For the same substance, on ErbB2 (T/B ratio from KSP*-IRDye800 alone, HGD/EAC vs SQ/NDBE/LGD, LOOCV), the Accuracy was found to be 83%. In addition, the AUC on ErbB2 (T/B ratio from KSP*-IRDye800 alone, average of 1000 bootstrap samples) turned out to be 0.95. Moreover, the “fluorescence from regions of HGD and EAC in vivo” value in data set [5] is given as “Increased fluorescence intensities”.
